Among the data in patent publication US20240270748A1 (Merck Patent GmbH, priority 2021, published 2024) are IC50 values, retold here.

A word on the IC50: it is the midpoint of a concentration-inhibition curve.

In the assay the test system is YAP-TEAD interaction. Put plainly: SK-HEP-1 reporter assay (8xTEAD responsive elements driving NanoLuc luciferase). The assay is classed as cell-based. How it is done: To identify inhibitors of YAP-TEAD interaction, 8×TEAD responsive elements driving the NanoLuc® luciferase gene were stably integrated into SK-HEP-1 cells (ECACC #: 91091816).
For the assay, cells were treated in duplicates with the test compounds in a 10-point dose, with the top concentration starting at 30 μM (final concentration in assay). After a 24 hour incubation at 37° C., 95% rH, and 5% CO2, a luciferase substrate/lysis reagent mix (NanoGlo™, Promega) was added to the cells, allowing the quantification of cellular luciferase activity.
Cell Media: The cells were cultured in the following media: MEM, +10% FBS, +1× GlutaMAX, +1 mM Sodium-Pyruvate, +100 μM Non-essential amino acids, +0.1 mg/ml Hygromycin. The media used for the assay was: MEM (w/o Phenol Red), +10% FBS, +1× GlutaMAX, +1 mM Sodium-Pyruvate, +100 μM Non-essential amino acids, +0.5% Pen/Strep
Reagents: The reagents used are listed below:
Cell culture: The cells were examined using an inverted microscope to check for health and cell density. To dissociate adherent cells, the monolayer of cells was washed once with pre-warmed PBS. After removing the PBS, 3 ml pre-warmed Accutase® was added to a F75 flask, dispersed evenly and the flask was allowed to sit in incubator for ˜4-5 minutes.
When a single cell suspension was obtained, 7 ml of prewarmed growth media was added and resuspended with the cells. The cell suspension was transferred to a sterile 15 ml conical centrifuge tube, and spun for 5 min at 300×g, RT. The supernatant was discarded and the pellet was resuspended in 10 ml of pre-warmed growth media.
The total cell count was determined, and 20 μl of the desired cell number was added to each well of a 384 well plate using a Multidrop Combi. The plates were then incubated for 24 hours at 37° C., 95% rH, and 5% C02.
Compound treatment: 24 hours after seeding, the cells were treated with compounds.
A 1:333 dilution of compounds, diluted in DMSO, was made to get a final concentration of 0.3% DMSO per well. To transfer the compounds to the assay plate, […] was shot from Labcyte low dead volume plates to the cell plates containing 20 μl media/well with the ECHO 555 liquid handling system.
After treatment, the cells were fed with 20 μl fresh pre-warmed assay media using a Multidrop combi.
The assay plates were then incubated for another 24 h at 37° C., 95% rH, and 5% CO2.
Luciferase readout: 24 h after treatment, the plates were taken out of the incubator and were allowed to equilibrate to RT. 30 μl of NanoGlo® reagent was added to the plates in the dark. Plates were shaken for 20 min on a Teleshake (˜1500 rpm) in the dark. The luminescence was then measured using an EnVision microplate reader. The IC50 values were generated using Genedata Screener®.

The mark [1] stands for this setting: Homo sapiens, SK-HEP1, SK-HEP-1 reporter assay, class symbols.
The mark [2] stands for this setting: Homo sapiens, SK-HEP1, SK-HEP-1 reporter assay, n.d. = value not detectable below threshold given in parentheses, ND = not determinable within the entire range.
The mark [3] stands for this setting: SK-HEP-1 reporter assay, class symbols.

Take `Cn1cc2c(n1)c1cc(S(=O)(=O)N3CCC[C@H]3c3cccnc3)ccc1n2-c1ccc(C(F)(F)F)cc1` (single isomer, unassigned) [Example C14]: the IC50 under setting [1] is over 10 µM.
Take `Cn1cc2c(n1)c1cc(S(=O)(=O)N3C[C@H](O)C[C@@H]3c3ccccc3)ccc1n2-c1ccc(C(F)(F)F)cc1` (single isomer, unassigned) [Example C40]: the IC50 under setting [2] is over 30 µM.
On the same count and under the same terms, as for `Cn1cc2c(n1)c1cc(S(=O)(=O)N3C[C@@H](O)C[C@@H]3c3ccccc3)ccc1n2-c1ccc(C(F)(F)F)cc1` (single isomer, unassigned) [Example C45], the figure is over 1 µM; as for `Cn1cc2c(n1)c1cc(S(=O)(=O)N3C[C@H](O)C[C@H]3c3ccccc3)ccc1n2-c1ccc(C(F)(F)F)cc1` (single isomer, unassigned) [Example C46], over 1 µM.
Take `Cn1cc2c(n1)c1cc(S(=O)(=O)N3C[C@@H](O)C[C@H]3c3ccccc3)ccc1n2-c1ccc(C(F)(F)F)cc1` (single isomer, unassigned) [Example C47]: the IC50 under setting [2] was over 10 µM.
On the same count and under the same terms, as for `Cn1cc2c(n1)c1cc(S(=O)(=O)N3CCC[C@@H]3c3cncnc3)ccc1n2-c1ccc(C(F)(F)F)cc1` (single isomer, unassigned) [Example C61], the figure is over 1 µM.
`Cn1cc2c(n1)c1cc(S(=O)(=O)N3CCC[C@H]3c3cncnc3)ccc1n2-c1ccc(C(F)(F)F)cc1` (single isomer, unassigned) [Example C68] yielded an IC50 under setting [1] of 0.1 to 10 µM.
As for `COCC[C@H](CO)NC(=O)c1ccc2c(c1)c1c(C)snc1n2-c1ccc(C(F)(F)F)cc1` (single isomer, unassigned) [Example C93], the IC50 under setting [1] is 0.1 to 10 µM.
Under setting [3], `Cc1snc2c1c1cc(C(=O)N=S(C)(=O)CCCO)ccc1n2-c1ccc(C(F)(F)F)cc1` (single isomer, unassigned) [Example C103] returned an IC50 of 0.1 to 10 µM.
For `Cn1cc2c3cc(C(=O)N[C@H](CCO)c4cncs4)ccc3n(-c3ccc(C(F)(F)F)cc3)c2n1` (single isomer, unassigned) [Example C163], the IC50 under setting [1] lay in the range of 0.1 to 10 µM.
Under setting [1], `CC(NC(=O)c1ccc2c(c1)c1cn(C)nc1n2-c1ccc(C(F)(F)F)cc1)c1cccc(N)n1` (single isomer, unassigned) [Example C186] returned an IC50 of 0.1 to 10 µM.
Still for that read-out and setting: as for `Cn1cc2c3cc(C(=O)N=[S@@](=O)(CCO)Cc4cccnc4)ccc3n(-c3ccc(C(F)(F)F)cc3)c2n1` (single isomer, unassigned) [Example C190], the figure is 0.1 to 10 µM; as for `Cn1nc2c3cc(C(=O)N=[S@](=O)(CCO)Cc4cccnc4)ccc3n(-c3ccc(C(F)(F)F)cc3)c2n1` (single isomer, unassigned) [Example C235], 0.01 to 0.1 µM; as for `Cn1nc2c3cc(C(=O)N=[S@@](=O)(CCO)Cc4cccnc4)ccc3n(-c3ccc(C(F)(F)F)cc3)c2n1` (single isomer, unassigned) [Example C238], 0.01 to 0.1 µM.
`COCCC(CO)NC(=O)c1ccc2c(c1)c1cn(C)nc1n2-c1ccc(C(F)(F)F)cc1` (single isomer, unassigned) [Example C246] displayed an IC50 under setting [3] of 0.1 to 10 µM.
With `Cn1nc2c3cc(C(=O)N=[S@@](=O)(CCO)Cc4ccncc4)ccc3n(-c3ccc(C(F)(F)F)cc3)c2n1` (single isomer, unassigned) [Example C266], the IC50 under setting [1] lay in the range of 0.1 to 10 µM.
Same read-out and setting: as for `Cn1cc2c3cc(NC(=O)CCl)ccc3n(-c3ccc(C(F)(F)F)cc3)c2n1` [Example 23, 2-chloro-N-[2-methyl-8-[4-(trifluoromethyl)phenyl]pyrazolo[3,4-b]indol-5-yl]acetamide], the figure is over 10 µM; as for `CC(NC(=O)c1ccc2c(c1)c1cn(C)nc1n2-c1ccc(C(F)(F)F)cc1)c1c[nH]nn1` (stereo not drawn) [Example B5], 0.1 to 10 µM; as for `CC(NC(=O)c1ccc2c(c1)c1cn(C)nc1n2-c1ccc(C(F)(F)F)cc1)c1ncc[nH]1` (stereo not drawn) [Example B8], 0.1 to 10 µM.
On to `CC(CNC(=O)c1ccc2c(c1)c1cn(C)nc1n2-c1ccc(C(F)(F)F)cc1)c1ccc(F)nc1` (stereo not drawn) [Example B92], for which the IC50 under setting [1] lay in the range of 0.1 to 10 µM.
In the case of `C[C@@H](CO)NS(=O)(=O)c1ccc2c(c1)c1nnn(C)c1n2-c1ccc(C(F)(F)F)cc1` [Example C1, N-[(2S)-1-hydroxypropan-2-yl]-3-methyl-4-[4-(trifluoromethyl)phenyl]-3H,4H-[1,2,3]triazolo[4,5-b]indole-7-sulfonamide], the IC50 under setting [2] was over 30 µM.
Consider `Cn1cc2c(n1)c1cc(S(=O)(=O)N3CCC[C@@H]3c3cccnc3)ccc1n2-c1ccc(C(F)(F)F)cc1` [Example C8, 3-[(2R)-1-({2-methyl-4-[4-(trifluoromethyl)phenyl]-2H,4H-pyrazolo[4,3-b]indol-7-yl}sulfonyl)pyrrolidin-2-yl]pyridine], for which the IC50 under setting [1] is over 10 µM.
As for `Cn1nnc2c3cc(S(N)(=O)=O)ccc3n(-c3ccc(C(F)(F)F)cc3)c21` [Example C11, 3-methyl-4-[4-(trifluoromethyl)phenyl]-3H,4H-[1,2,3]triazolo[4,5-b]indole-7-sulfonamide], the IC50 under setting [2] is over 30 µM.
The same measure, in the same setting: as for `C[C@H](CO)NS(=O)(=O)c1ccc2c(c1)c1nnn(C)c1n2-c1ccc(C(F)(F)F)cc1` [Example C13, N-[(2R)-1-hydroxypropan-2-yl]-3-methyl-4-[4-(trifluoromethyl)phenyl]-3H,4H-[1,2,3]triazolo[4,5-b]indole-7-sulfonamide], the figure is over 30 µM.
In the case of `Cn1cc2c3cc(N(S(C)(=O)=O)S(C)(=O)=O)ccc3n(-c3ccc(C(F)(F)F)cc3)c2n1` [Example C19, N-methanesulfonyl-N-{2-methyl-8-[4-(trifluoromethyl)phenyl]-2H,8H-pyrazolo[3,4-b]indol-5-yl}methanesulfonamide], under setting [1], the IC50 lay in the range of 0.1 to 10 µM.
The molecule `Cn1cc2c3cc(NC(=O)Cc4ccccn4)ccc3n(-c3ccc(C(F)(F)F)cc3)c2n1` [Example C22, N-{2-methyl-8-[4-(trifluoromethyl)-phenyl]-2H,8H-pyrazolo[3,4-b]indol-5-yl}-2-(pyridin-2-yl)acetamide] showed an IC50 under setting [1] of over 10 µM.
Still for that read-out and setting: as for `Cn1cc2c3cc(NC(=O)Cc4cccnc4)ccc3n(-c3ccc(C(F)(F)F)cc3)c2n1` [Example C23, N-{2-methyl-8-[4-(trifluoromethyl)-phenyl]-2H,8H-pyrazolo[3,4-b]indol-5-yl}-2-(pyridin-3-yl)acetamide], the figure is 0.1 to 10 µM; as for `C[C@@H](CCN)NC(=O)c1ccc2c(c1)c1cn(C)nc1n2-c1ccc(C(F)(F)F)cc1` [Example C26, N-[(2S)-4-aminobutan-2-yl]-2-methyl-8-[4-(trifluoromethyl)phenyl]-2H,8H-pyrazolo[3,4-b]indole-5-carboxamide], 0.1 to 10 µM.
Take `C[C@H](CCN)NC(=O)c1ccc2c(c1)c1cn(C)nc1n2-c1ccc(C(F)(F)F)cc1` [Example C27, N-[(2R)-4-aminobutan-2-yl]-2-methyl-8-[4-(trifluoromethyl)phenyl]-2H,8H-pyrazolo[3,4-b]indole-5-carboxamide]: the IC50 under setting [1] fell in the range of 0.1 to 10 µM.
`Cn1cc2c3cc(C(=O)OCCS(C)(=N)=O)ccc3n(-c3ccc(C(F)(F)F)cc3)c2n1` (stereo not drawn) [Example C29, 2-[imino(methyl)oxo-λ^6-sulfanyl]ethyl 2-methyl-8-[4-(trifluoromethyl)phenyl]-2H,8H-pyrazolo[3,4-b]indole-5-carboxylate] had an IC50 under setting [1] of 0.01 to 0.1 µM.
Consider `CNc1ccc2c(c1)c1cn(C)nc1n2-c1ccc(C(F)(F)F)cc1` [Example C32, N,2-dimethyl-8-[4-(trifluoromethyl)phenyl]-2H,8H-pyrazolo[3,4-b]indol-5-amine], for which, under setting [1], the IC50 was in the range of 0.1 to 10 µM.
For the molecule `Cn1cc2c3cc(NC(=O)Cc4ccncc4)ccc3n(-c3ccc(C(F)(F)F)cc3)c2n1` [Example C33, N-{2-methyl-8-[4-(trifluoromethyl)phenyl]-2H,8H-pyrazolo[3,4-b]indol-5-yl}-2-(pyridin-4-yl)acetamide], under setting [2], the IC50 is over 10 µM.
Turning to `O=C(O)c1ccc2c(c1)c1cnn(C(F)(F)F)c1n2-c1ccc(C(F)(F)F)cc1` [Example C34, 1-(trifluoromethyl)-8-[4-(trifluoromethyl)phenyl]-1H,8H-pyrazolo[3,4-b]indole-5-carboxylic acid], the IC50 under setting [1] was in the range of 0.1 to 10 µM.
